From PubChem BioAssay (NCI) come the findings set out here.

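Grown in 96-well plates, cells were treated for 48 hours with each compound at five concentrations. Insufficient inhibition: endpoint recorded as highest concentration tested. GI50: concentration for 50% inhibition of growth. Definition used: TGI = concentration required for complete inhibition of growth.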

Common to all, as to assay: DTP human tumour cell line panel, 48 h
Assay [1] has as its system SK-MEL-2 melanoma.
The subject of assay [2] is COLO 205 colon.
Assay [3] relates to EKVX NSCLC.
The subject of assay [4] is HCT-116 colon.
Assay [5] deals with OVCAR-8 ovarian.
Assay [6] deals with MOLT-4 leukemia.
Assay [7] has as its system OVCAR-3 ovarian.
In assay [8] the test system is SW-620 colon.
Assay [9] has as its system OVCAR-4 ovarian.
Assay [10] has as its system SNB-75 CNS.

A word on the GI50: it is the concentration giving 50% growth inhibition. What is called TGI is the concentration at which net growth stops. Lower therefore signals more potent growth arrest. In the case of `NC(=O)c1nc(-c2c(F)cccc2Cl)oc1Nc1ccc(C(=O)N2CCOCC2)cc1`, the GI50 in [1] is 12.7 µM; in assay [2], 1.64 µM; in [3], 12.2 µM; in assay [4], 1.36 µM; in assay [5], 5.83 µM; in assay [6] it was 2.03 µM. The GI50 in assay [7] is 10.3 µM; in assay [8], 0.703 µM; in assay [9], 28.4 µM. For the same compound, the TGI in assay [1] was 58.6 µM; in [2] it was 5.89 µM; in assay [3], over 100 µM; in assay [4], 20 µM; in assay [5], over 100 µM; in [6], 37.7 µM. In addition, the TGI in assay [7], in assay [8] and in assay [9] was over 100 µM throughout.

For `CCOC(=O)c1cc(C(=O)c2ccc(OC)c(OC)c2)n2c1ccc1ccc3cccnc3c12`, the GI50 is 2.67 µM in assay [1]; 4.14 µM in [3]; 0.619 µM in [4]; 3.73 µM in [5]; 4.53 µM in [6]; 2.04 µM in assay [10]. Further, the GI50 in assay [8] was 0.93 µM; in assay [9] it was 5.17 µM. Moreover, the TGI in assay [1] is 66.6 µM; in [3], over 100 µM; in assay [4], over 100 µM; in [5], over 100 µM; in assay [6], over 100 µM; in assay [10], over 100 µM. In addition, the TGI in assay [8] and in [9] was over 100 µM in each case.

`Cc1ccccc1Nc1cc(O)c2c(=O)cc(-c3ccccc3)oc2c1`: the GI50 was 2.44 µM in assay [1]; 3.35 µM in [3]; 3.36 µM in [4]; 3.61 µM in assay [5]; 2.66 µM in [6]; 1.72 µM in assay [7]. In addition, the GI50 in [8] was 0.734 µM; in assay [9], 3.38 µM. For the same compound, the TGI in assay [1] was over 100 µM; in assay [3], over 100 µM; in assay [4], over 100 µM; in assay [5] it was over 100 µM; in assay [6], over 100 µM; in [7] it was 4.91 µM. Besides, the concentration for total growth inhibition (TGI) in assay [8] and in assay [9] was over 100 µM each time.

As to `CC(C)(C)O/N=C/c1cc(NC(=S)c2ccccc2)ccc1Cl`, the TGI in assay [1] amounted to 39.6 µM; in [2], 27.8 µM; in assay [3], 40.7 µM; in assay [4], 29.4 µM; in assay [5], 35.6 µM; in [6], 39.7 µM. The results for the TGI in assay [7], in assay [8] and in assay [9] were 35.3 µM, 45.3 µM and 74.7 µM, respectively.

On to `CS(=O)(=O)OCCN1CCN(C(=O)c2ccc(Cl)c3c(Nc4ccc(S(=O)(=O)N=C(N)N)cc4)c4ccccc4nc23)CC1`, for which the TGI in assay [1], in assay [2], in assay [4], in assay [5], in assay [6] and in [7] was over 100 µM in each case. The TGI in [10] and in [9] was over 100 µM throughout.

On to `Cc1ccc2ccc3c4ccccc4ccc3c2c1`, for which the GI50 in assay [1] was 19 µM; in assay [2] it was 18 µM; in assay [4], 31.2 µM; in [5] it was 32.9 µM; in [6] it was 21.2 µM; in [7] it was 25.5 µM. The figures for the GI50 in assay [10], in assay [8] and in assay [9] were 39.3 µM, 25.9 µM and 17 µM, respectively. Besides, the TGI is 41.8 µM in assay [1]; 32.6 µM in [2]; over 100 µM in [4]; over 100 µM in assay [5]; 57.6 µM in assay [6]; 67.6 µM in assay [7]. For the same compound, the TGI in [10], in assay [8] and in [9] was over 100 µM throughout.

With `Oc1cn(-c2ccc(Cl)cc2)nc1-c1n[nH]c(=S)n1-c1ccc(F)cc1`, the GI50 in assay [1] is 34 µM; in assay [2], 61.4 µM; in assay [3], 27.5 µM; in assay [4] it was 11.6 µM; in assay [5] it was 27.3 µM; in [6], 14.7 µM. Also, the GI50 in [7] is 22 µM; in assay [8] it was 22.8 µM; in assay [9] it was 45.4 µM. The TGI is over 100 µM in assay [1]; over 100 µM in [2]; 91.1 µM in assay [3]; 25.5 µM in assay [4]; over 100 µM in assay [5]; over 100 µM in assay [6]. Besides, the TGI in assay [7] was over 100 µM; in assay [8], 78.3 µM; in [9], over 100 µM.

Take `COc1ccc(/C=C/C(=O)c2c(-c3ccccc3)nn(C)c(=O)c2N2CCCCC2)cc1`: the TGI in assay [2] was 44 µM; in assay [3], over 100 µM; in [4], 23.6 µM; in assay [5], over 100 µM; in [6], 23.1 µM; in [8], over 100 µM.

With `O=C1OC(=O)c2c1nc1ccccc1c2-c1ccccc1`, the TGI in assay [1], in [2], in assay [4], in assay [5], in assay [6] and in assay [10] was over 100 µM each time. Further, the TGI in assay [8] and in assay [9] was over 100 µM in each case.

With `CC(C)(C)C1=NO[C@H]2[C@@H](NC(=O)c3ccccc3)CC[C@@H]12`, the TGI in assay [2], in assay [4], in assay [5], in assay [6], in [7] and in assay [10] was over 100 µM throughout. Moreover, the TGI in [8] and in assay [9] was over 100 µM in each case.

On to `CCOC(=O)c1cn(C)c2c(OC)c3ccccc3c(OC)c2c1=O`, for which the GI50 in assay [2] is 63.8 µM; in assay [4] it was 19.6 µM; in assay [5] it was 20.2 µM; in assay [6], 18.9 µM; in assay [7], 5.62 µM; in [10] it was over 100 µM. In [9], the GI50 is 42.1 µM. Further, the TGI was over 100 µM in [2]; 38.5 µM in [4]; 63.7 µM in [5]; 51.7 µM in assay [6]; 25.7 µM in assay [7]; over 100 µM in assay [10]. In [9], this compound returned a TGI of over 100 µM.
